Experimental findings from patent US12421253B2 (Mirati Therapeutics, Inc., priority 2020, dated 2025) are described below.

One test deals with T1, KRas^WT (Homo sapiens, UniProt P01116).
T1 construct: […]; biotin (biotinylated); purchased Accelegan Inc
Put plainly: KRas binding assay (TR-FRET displacement of Cy5 labelled tracer). A general note: TR-FRET usually uses a lanthanide donor and a delayed reading to cut background.

The next test deals with T2, KRas^G12A (Homo sapiens, UniProt P01116, G12A).
T2 construct: […]; biotin (biotinylated); purchased Accelegan Inc
T2 sequence (P01116 1-169 isoform P01116-2 G12A): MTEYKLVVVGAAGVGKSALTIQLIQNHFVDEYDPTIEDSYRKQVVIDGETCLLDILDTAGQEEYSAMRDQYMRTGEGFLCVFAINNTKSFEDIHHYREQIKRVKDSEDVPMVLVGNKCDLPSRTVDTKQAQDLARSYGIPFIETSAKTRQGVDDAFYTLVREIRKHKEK
The description is as above.

The next test addresses T3, KRas^G12D (Homo sapiens, UniProt P01116, G12D).
T3 construct: […]; biotin (biotinylated); purchased Accelegan Inc
The test is described as above.

The target of the next test is T4, KRas^G12R (Homo sapiens, UniProt P01116, G12R).
T4 construct: […]; biotin (biotinylated); purchased Accelegan Inc
T4 sequence (P01116 1-169 isoform P01116-2 G12R): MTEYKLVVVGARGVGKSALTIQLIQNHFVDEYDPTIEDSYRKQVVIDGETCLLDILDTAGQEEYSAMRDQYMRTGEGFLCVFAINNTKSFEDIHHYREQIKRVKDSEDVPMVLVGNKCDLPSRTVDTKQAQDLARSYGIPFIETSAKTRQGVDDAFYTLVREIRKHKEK
Described as above.

A further test has as its target T5, KRas^G12S (Homo sapiens, UniProt P01116, G12S).
T5 construct: […]; biotin (biotinylated); purchased Accelegan Inc
The test is described as above.

A further test deals with T6, KRas^G12V (Homo sapiens, UniProt P01116, G12V).
T6 construct: […]; biotin (biotinylated); purchased Accelegan Inc
T6 sequence (P01116 1-169 isoform P01116-2 G12V): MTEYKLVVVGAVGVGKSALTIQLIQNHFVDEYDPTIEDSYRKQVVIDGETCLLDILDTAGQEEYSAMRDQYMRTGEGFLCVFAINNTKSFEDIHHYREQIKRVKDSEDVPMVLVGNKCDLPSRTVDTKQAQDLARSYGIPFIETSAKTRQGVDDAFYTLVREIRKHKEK
The description is as above.

For test [1], the system named is AsPC-1 (G12D) cells, phospho-ERK. The test is described as follows: Inhibition of KRas-mediated phosphorylation of ERK (phospho-ERK/GAPDH antibody detection, LI-COR). Format: cell-based. Particulars: Homo sapiens, ASPC1, 3 hours. As to the method: (§1) AsPC-1 (G12D, ATCC CRL-1682), A549 (G12S, ATCC CCL-185), HCT116 (G13D, ATCC CCL-247) cells were grown in DMEM medium supplemented with 10% fetal bovine serum and Penicillin/Streptomycin. NCI-H358 (G12C, ATCC CRL-5807), NCI-H460 (Q61H, ATCC HTB-117), NCI-H727 (G12V, ATCC CRL-5815), MKN1 (WTdep, JCRB JCRB0252), PSN-1 (G12R, ATCC CRM-CRL-3211) cells were grown in RPMI medium supplemented with 10% fetal bovine serum, 10 mM HEPES, 10 mM Sodium Pyruvate, and Penicillin/Streptomycin. Cells were plated in black well clear bottom tissue culture treated 96 well plates (Corning, 3904) at a density of 20,000 cells/well and allowed to attach for 12-14 hours. Diluted compounds were then added in a final concentration of 0.5% DMSO. After 3 hours, 50 μL of 4.0% formaldehyde was added and the plates incubated at room temperature for 20 minutes. The plates were then dumped and permeabilized with 150 μL of ice cold 100% methanol for 10 minutes. Non-specific antibody binding to the plates was blocked using 100 μL Odyssey blocking buffer (LI-COR Biosciences, 927-60010) for 1 hour at room temperature.
(§2) The amount of phospho-ERK was determined using an antibody specific for the phosphorylated form of ERK and compared to the amount of GAPDH. Primary antibodies used for the detection were added as follows: Phospho-ERK (Cell Signaling CS-9101) diluted 1:500 and GAPDH (Millipore MAB374) diluted 1:5000 in Odyssey blocking buffer+0.05% Tween 20. The plates were incubated overnight at 4 C. The plates were washed 3× with 150 uL PBS+0.1% Tween 20.
(§3) Secondary antibodies used to visualize primary antibodies were added as follows: Goat Anti-Rabbit-800 (LI-COR, 926-32211) and Goat Anti-Mouse-680 (LI-COR, 926-68070) diluted 1:800 both in Odyssey blocking buffer+0.05% Tween 20 and were incubated for 1 hour at room temperature. The plates were washed 3× with 150 uL PBS+[…]. Plates were imaged dry on a Li—COR Odyssey CLX plate reader.
(§4) The phospho-ERK (Thr202/Tyr204) signal was normalized to the GAPDH signal for each well and percent of DMSO control values were calculated. IC50 values were generated using a 4-parameter fit of the dose response curve.

The subject of test [2] is NCI-H460 (Q61H) cells, phospho-ERK. The test is described as above. Format: cell-based. Particulars: Homo sapiens, 3 hours. As for the experimental part:
as §1, §2, §3, §4

The test system of test [3] is NCI-H727 (G12V) cells, phospho-ERK. The description is as above. The format is cell-based. Particulars: Homo sapiens, 3 hours. As to the method:
as §1, §2, §3, §4

In another test the test system is MKN1 cells, pERK. Put plainly: Inhibition of KRas phosphorylation of ERK (Cisbio HTRF Advanced pERK assay). Format: cell-based. Particulars: Homo sapiens, MKN-1, 3 h, read-out: Inhibition (HTRF IC50 nM) of KRas-mediated Phosphorylation of ERK, MKN1. Summed up:
(§5)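 pERK measured by HTRF in lysates from cells treated 3 h with compound, 10 uM top, 3-fold steps, 10 doses, 0.8% DMSO final. Cells (6,000/well, RPMI 10% FBS) had been plated overnight at 37 °C; 0.2 uM trametinib defined minimum signal; antibody detection 2 h at room temperature.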

A further test deals with PSN1 cells, pERK. The test is described as above. Format: cell-based. Particulars: Homo sapiens, PSN1, 3 h, read-out: Inhibition (HTRF IC50 nM) of KRas-mediated Phosphorylation of ERK, PSN1. Summed up: as §5
For the next test, the target named is KRas^G12C (Homo sapiens, UniProt P01116, G12C). The test is described as follows: biochemical.
KRas^G12C, sequence (P01116 1-169 isoform P01116-2 G12C): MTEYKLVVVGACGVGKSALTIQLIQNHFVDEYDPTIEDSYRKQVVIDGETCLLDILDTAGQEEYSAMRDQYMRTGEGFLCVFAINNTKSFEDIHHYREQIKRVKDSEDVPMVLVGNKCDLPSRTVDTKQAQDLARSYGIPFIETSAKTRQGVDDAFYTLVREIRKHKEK
The target in the next test is KRas^G13D (Homo sapiens, UniProt P01116, G13D). The test is described as follows: biochemical.
KRas^G13D, sequence (P01116 1-169 isoform P01116-2 G13D): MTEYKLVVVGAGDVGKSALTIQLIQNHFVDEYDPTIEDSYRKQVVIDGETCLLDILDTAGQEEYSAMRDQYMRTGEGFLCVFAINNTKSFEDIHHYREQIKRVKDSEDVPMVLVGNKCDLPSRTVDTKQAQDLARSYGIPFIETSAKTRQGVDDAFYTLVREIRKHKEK
The target in the next test is KRas^Q61H (Homo sapiens, UniProt P01116, Q61H). Put plainly: biochemical.
KRas^Q61H, sequence (P01116 1-169 isoform P01116-2 Q61H): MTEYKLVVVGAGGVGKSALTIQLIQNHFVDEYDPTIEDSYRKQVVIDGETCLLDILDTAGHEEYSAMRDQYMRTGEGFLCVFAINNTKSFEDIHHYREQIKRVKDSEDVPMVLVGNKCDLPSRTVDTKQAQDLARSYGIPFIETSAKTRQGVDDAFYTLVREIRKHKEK
Another test has as its system ASPC1 cells, pERK. Put plainly: Inhibition of KRas phosphorylation of ERK (Cisbio HTRF Advanced pERK assay). The format is cell-based. Particulars: Homo sapiens, ASPC1, 3 h, AsPC-1 cells, read-out: Inhibition (HTRF IC50 nM) of KRas-mediated Phosphorylation of ERK, AsPC-1. Summed up: as §5
A further test has as its system H727 cells, pERK. The test is described as above. Format: cell-based. The settings on record: Homo sapiens, NCI-H727, 3 h, read-out: Inhibition (HTRF IC50 nM) of KRas-mediated Phosphorylation of ERK, H727. Summed up: as §5
A further test has as its system HCT116 cells, pERK. The test is described as above. Format: cell-based. Particulars: Homo sapiens, HCT-116, 3 hrs, read-out: Inhibition (HTRF IC50 nM) of KRas-mediated Phosphorylation of ERK, HCT116. Summed up:
as §5

The next test deals with A549 cells, pERK. Described as above. The settings on record: Homo sapiens, 3 hrs, read-out: Inhibition (HTRF IC50 nM) of KRas-mediated Phosphorylation of ERK, A549. Format: cell-based. Summed up:
as §5

A further test has as its system H460 cells, pERK. The description is as above. Format: cell-based. Particulars: Homo sapiens, NCI-H460, 3 hrs, read-out: Inhibition (HTRF IC50 nM) of KRas-mediated Phosphorylation of ERK, H460. Summed up:
as §5

A value given as a limit tells only on which side of the number the result lay.

T3 sequence (P01116 1-169 isoform P01116-2 G12D): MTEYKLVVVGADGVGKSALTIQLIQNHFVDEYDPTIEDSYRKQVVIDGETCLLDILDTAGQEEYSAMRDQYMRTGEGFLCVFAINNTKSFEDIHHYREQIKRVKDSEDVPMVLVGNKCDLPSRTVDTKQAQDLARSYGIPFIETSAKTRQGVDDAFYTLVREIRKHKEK
T5 sequence (P01116 1-169 isoform P01116-2 G12S): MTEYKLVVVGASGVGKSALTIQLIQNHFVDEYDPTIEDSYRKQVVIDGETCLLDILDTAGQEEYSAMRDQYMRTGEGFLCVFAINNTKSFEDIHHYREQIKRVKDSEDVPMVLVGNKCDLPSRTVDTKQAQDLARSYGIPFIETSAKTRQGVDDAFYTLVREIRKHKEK
T1 sequence (P01116 1-169 isoform P01116-2): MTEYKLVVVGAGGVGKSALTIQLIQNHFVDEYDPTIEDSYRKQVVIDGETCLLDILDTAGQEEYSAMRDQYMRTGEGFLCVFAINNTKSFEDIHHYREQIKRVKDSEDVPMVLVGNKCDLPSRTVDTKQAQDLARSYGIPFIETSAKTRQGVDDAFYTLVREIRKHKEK
Description for KRas^G12A: (§6) The ability of a compound to bind to KRas was measured using a TR-FRET displacement assay. […] After a 60-minute incubation at room temperature, the reaction was measured using a BMG LABTECH CLARIO star Plus via TR-FRET. […] The POC values were fit to a 4-parameter IC50 equation and the IC50 value reported.
Description for KRas^G12C: as §6
Description for KRas^G12D: as §6
Description for KRas^G12R: as §6
Description for KRas^G12S: as §6
Description for KRas^G12V: as §6
Description for KRas^G13D: as §6
Description for KRas^Q61H: as §6
Description for KRas^WT: as §6

As for `CCc1c(F)ccc2cc(O)cc(N3CCc4c(nc(OC[C@@]56CCCN5C[C@H](F)C6)nc4NCc4c[nH]c5ncccc45)C3)c12` [Example 23, 4-(4-(((1H-pyrrolo[2,3-b]pyridin-3-yl)methyl)amino)-2-(((2R,7aS)-2-fluorohexahydro-1H-pyrrolizin-7a-yl)methoxy)-5,6-dihydropyrido[3,4-d]pyrimidin-7(8H)-yl)-5-ethyl-6-fluoronaphthalen-2-ol], the 50% inhibitory concentration (IC50) (in general, the point on the concentration scale where inhibition reaches its midpoint) at KRas^WT is 0.036 µM; at KRas^G12A it was 0.009 µM; at KRas^G12D, 0.069 µM; at KRas^G12R, 0.004 µM; on KRas^G12S, 0.012 µM; at KRas^G12V, 0.005 µM. The IC50 in test [1] was 3850 nM; in [2], 1770 nM; in test [3] it was 2420 nM; in the test on MKN1 cells, pERK, 53 nM; in the test with PSN1 cells, pERK it was at least 10000 nM; at KRas^G12C, 0.007 µM. Also, the IC50 on KRas^G13D came to 0.042 µM; on KRas^Q61H, 0.038 µM.

Take `CCc1c(F)ccc2cc(O)cc(N3CCc4c(nc(OC[C@@]56CCCN5C[C@H](F)C6)nc4N4CCOCC(n5cccn5)C4)C3)c12` (stereo partly drawn) [Example 25, 4-(4-(6-(1H-pyrazol-1-yl)-1,4-oxazepan-4-yl)-2-(((2R,7aS)-2-fluorohexahydro-1H-pyrrolizin-7a-yl)methoxy)-5,6-dihydropyrido[3,4-d]pyrimidin-7(8H)-yl)-5-ethyl-6-fluoronaphthalen-2-ol]: the concentration for half-maximal inhibition (IC50) stood at 0.003 µM on KRas^G12D; 0.004 µM at KRas^G12R; 0.003 µM on KRas^G12V; 448 nM in [1]; 171 nM in [2]; 540 nM in test [3]. In addition, the IC50 in the test with ASPC1 cells, pERK stood at 180 nM; in the test with H727 cells, pERK, 767 nM; in the test with HCT116 cells, pERK, 521 nM; in the test on MKN1 cells, pERK, 51 nM; with PSN1 cells, pERK, 8320 nM.

With `CCc1c(F)ccc2cc(O)cc(N3CCc4c(nc(OC[C@@]56CCCN5C[C@H](F)C6)nc4N4CCOCC(O)C4)C3)c12` (stereo partly drawn) [Example 29, 4-(7-(8-ethyl-7-fluoro-3-hydroxynaphthalen-1-yl)-2-(((2R,7aS)-2-fluorohexahydro-1H-pyrrolizin-7a-yl)methoxy)-5,6,7,8-tetrahydropyrido[3,4-d]pyrimidin-4-yl)-1,4-oxazepan-6-ol], the IC50 is at most 0.002 µM at KRas^G12D; at most 0.002 µM on KRas^G12R; at most 0.002 µM on KRas^G12V; 509 nM in [1]; 285 nM in test [2]; 542 nM in test [3]. For the same compound, the 50% inhibitory concentration (IC50) stood at 318 nM in the test with ASPC1 cells, pERK; 906 nM in the test on H727 cells, pERK; 1310 nM in the test with HCT116 cells, pERK; 20 nM in the test on MKN1 cells, pERK; 5810 nM in the test on PSN1 cells, pERK.

As for `O=C1NC(=O)C2(CCCN(c3nc(OC[C@@]45CCCN4C[C@H](F)C5)nc4c3CCN(c3cc(O)cc5ccc(F)c(Cl)c35)C4)C2)N1` (stereo partly drawn) [Example 69, 7-(7-(8-chloro-7-fluoro-3-hydroxynaphthalen-1-yl)-2-(((2R,7aS)-2-fluorohexahydro-1H-pyrrolizin-7a-yl)methoxy)-5,6,7,8-tetrahydropyrido[3,4-d]pyrimidin-4-yl)-1,3,7-triazaspiro[4.5]decane-2,4-dione], the IC50 at KRas^G12D was at most 0.002 µM; at KRas^G12R, at most 0.002 µM; at KRas^G12V, 0.052 µM; in the test with A549 cells, pERK, 59 nM; in the test on ASPC1 cells, pERK it was 122 nM; with H460 cells, pERK, 68 nM. Also, the IC50 in the test with H727 cells, pERK was 194 nM; in the test on HCT116 cells, pERK it was 164 nM; in the test on MKN1 cells, pERK, 41 nM; in the test on PSN1 cells, pERK, 578 nM.

For the compound `CCc1c(F)ccc2cc(O)cc(N3CCc4c(nc(OC[C@@H]5CCCN5C)nc4N4CCCn5nc(C(=O)N(C)C)cc5C4)C3)c12` [Example 198, 5-[7-(8-ethyl-7-fluoro-3-hydroxy-1-naphthyl)-2-[[(2S)-1-methylpyrrolidin-2-yl]methoxy]-6,8-dihydro-5H-pyrido[3,4-d]pyrimidin-4-yl]-N,N-dimethyl-4,6,7,8-tetrahydropyrazolo[1,5-a][1,4]diazepine-2-carboxamide], the half-maximal inhibitory concentration (IC50) on KRas^G12D is at most 0.002 µM; at KRas^G12R, 0.005 µM; at KRas^G12V it was at most 0.002 µM; in the test on A549 cells, pERK, 671 nM; with ASPC1 cells, pERK, 185 nM; with H460 cells, pERK, 1240 nM. In addition, the IC50 in the test with H727 cells, pERK was 344 nM; in the test on HCT116 cells, pERK it was 1950 nM; with MKN1 cells, pERK, 185 nM; in the test on PSN1 cells, pERK, at least 10000 nM.

For the compound `CCc1c(F)ccc2cc(O)cc(N3CCc4c(nc(OCC5(CN(C)C)CC5)nc4N4CCCn5nc(C(=O)N(C)C)cc5C4)C3)c12` [Example 203, 5-(2-((1-((dimethylamino)methyl)cyclopropyl)methoxy)-7-(8-ethyl-7-fluoro-3-hydroxynaphthalen-1-yl)-5,6,7,8-tetrahydropyrido[3,4-d]pyrimidin-4-yl)-N,N-dimethyl-5,6,7,8-tetrahydro-4H-pyrazolo[1,5-a][1,4]diazepine-2-carboxamide], the IC50 was at most 0.002 µM on KRas^G12D; 0.003 µM on KRas^G12R; 0.052 µM on KRas^G12V; 524 nM in the test with A549 cells, pERK; 132 nM with ASPC1 cells, pERK; 1100 nM in the test on H460 cells, pERK. In addition, the IC50 with H727 cells, pERK was 283 nM; with HCT116 cells, pERK, 1700 nM; in the test with MKN1 cells, pERK, 181 nM; in the test with PSN1 cells, pERK, at least 10000 nM.

For `O=C1NC(=O)C2(CCCN(c3nc(OC[C@@]45CCCN4C[C@H](F)C5)nc4c3CCN(c3cc(O)cc5ccc(F)c(Br)c35)C4)C2)N1` (stereo partly drawn) [Example 217, 7-(7-(8-bromo-7-fluoro-3-hydroxynaphthalen-1-yl)-2-(((2R,7aS)-2-fluorohexahydro-1H-pyrrolizin-7a-yl)methoxy)-5,6,7,8-tetrahydropyrido[3,4-d]pyrimidin-4-yl)-1,3,7-triazaspiro[4.5]decane-2,4-dione], the half-maximal inhibitory concentration (IC50) at KRas^G12D is at most 0.002 µM; on KRas^G12R, at most 0.002 µM; at KRas^G12V, at most 0.002 µM; in the test with A549 cells, pERK, 160 nM; in the test with ASPC1 cells, pERK, 234 nM; in the test on H460 cells, pERK, 132 nM. Also, the half-maximal inhibitory concentration (IC50) in the test on H727 cells, pERK is 390 nM; in the test with HCT116 cells, pERK it was 227 nM; in the test on MKN1 cells, pERK it was 21 nM; with PSN1 cells, pERK it was 269 nM.
